Results published in PubChem BioAssay (NCI).
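Protocol summary: plate cells (96-well), add compound at 5 concentrations, incubate 48 h, interpolate endpoints linearly. At the GI50, growth is halved. The concentration for full growth arrest is given as TGI.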

How the values were obtained:
Experiment in all cases: NCI-60 cell line screen, 48 h
[1] = system: 786-0 renal
[2] = system: A498 renal
[3] = system: A549 NSCLC
[4] = system: ACHN renal
[5] = system: BT-549 breast
[6] = system: CAKI-1 renal
[7] = system: COLO 205 colon
[8] = system: DU-145 prostate
[9] = system: EKVX NSCLC
[10] = system: HCC-2998 colon
[11] = system: HCT-116 colon
[12] = system: HCT-15 colon
[13] = system: HL-60(TB) leukemia
[14] = system: HOP-62 NSCLC
[15] = system: HOP-92 NSCLC
[16] = system: HS 578T breast
[17] = system: HT29 colon
[18] = system: IGROV1 ovarian
[19] = system: K-562 leukemia
[20] = system: KM12 colon
[21] = system: LOX IMVI melanoma
[22] = system: M14 melanoma
[23] = system: MALME-3M melanoma
[24] = system: MCF7 breast
[25] = system: MDA-MB-231 breast
[26] = system: MDA-MB-435
[27] = system: MOLT-4 leukemia
[28] = system: NCI-H226 lung
[29] = system: NCI-H23 lung
[30] = system: NCI-H460 lung
[31] = system: NCI-H522 lung
[32] = system: NCI/ADR-RES ovarian
[33] = system: OVCAR-3 ovarian
[34] = system: OVCAR-4 ovarian
[35] = system: OVCAR-5 ovarian
[36] = system: OVCAR-8 ovarian
[37] = system: PC-3 prostate
[38] = system: RPMI-8226 leukemia
[39] = system: RXF 393 renal
[40] = system: SF-268 CNS
[41] = system: SF-295 CNS
[42] = system: SF-539 CNS
[43] = system: SK-MEL-2 melanoma
[44] = system: SK-MEL-28 melanoma
[45] = system: SK-MEL-5 melanoma
[46] = system: SK-OV-3 ovarian
[47] = system: SN12C renal
[48] = system: SNB-19 CNS
[49] = system: SNB-75 CNS
[50] = system: SR leukemia
[51] = system: SW-620 colon
[52] = system: T-47D breast
[53] = system: TK-10 renal
[54] = system: U251 CNS
[55] = system: UACC-257 melanoma
[56] = system: UACC-62 melanoma
[57] = system: UO-31 renal

Molecule `NC(=S)N/N=C\c1nccc2c(N)cccc12` has a GI50 [1] of 163 nM, a TGI [1] of 737 nM and a GI50 [2] of 172 nM. The TGI [2] was 1020 nM, the GI50 [3] was 484 nM and the TGI [3] was greater than 27000 nM. For the same molecule, the GI50 [4] was 97.7 nM, the GI50 [5] was 836 nM and the TGI [5] was greater than 100000 nM. The GI50 [6] was 243 nM, the TGI [6] was 1010 nM and the GI50 [7] was 1090 nM. It also gave a TGI [7] greater than 100000 nM, a GI50 [8] of 278 nM and a TGI [8] of 2380 nM. The GI50 [9] was 803 nM, the TGI [9] was greater than 100000 nM and the GI50 [10] was 374 nM. It also gave a TGI [10] greater than 100000 nM, a GI50 [11] of 356 nM and a TGI [11] greater than 46000 nM. For the same molecule, the GI50 [12] was 426 nM, the TGI [12] was greater than 100000 nM and the GI50 [13] was 181 nM. For the same molecule, the TGI [13] was 11700 nM, the GI50 [14] was 352 nM and the TGI [14] was greater than 22000 nM. For the same molecule, the GI50 [15] was 233 nM, the TGI [15] was greater than 100000 nM and the GI50 [16] was 1680 nM. The TGI [16] was greater than 100000 nM, the GI50 [17] was 454 nM and the TGI [17] was greater than 100000 nM. It also gave a GI50 [18] of 219 nM, a GI50 [19] of 497 nM and a TGI [19] greater than 100000 nM. It also gave a GI50 [20] of 380 nM, a TGI [20] greater than 100000 nM and a GI50 [21] of 292 nM. The GI50 [22] was 153 nM, the TGI [22] was 317 nM and the GI50 [23] was 316 nM. The TGI [23] was 3080 nM, the GI50 [24] was 218 nM and the GI50 [25] was 471 nM. For the same molecule, the TGI [25] was greater than 100000 nM, the GI50 [26] was 379 nM and the TGI [26] was greater than 100000 nM. It also gave a GI50 [27] of 235 nM, a TGI [27] greater than 100000 nM and a GI50 [28] of 282 nM. The TGI [28] was 1080 nM, the GI50 [29] was 224 nM and the TGI [29] was greater than 94800 nM. For the same molecule, the GI50 [30] was 303 nM, the TGI [30] was 2040 nM and the GI50 [31] was 178 nM. It also gave a TGI [31] of 509 nM, a GI50 [32] of 375 nM and a TGI [32] of 17300 nM. The GI50 [33] was 306 nM, the TGI [33] was greater than 100000 nM and the GI50 [34] was 414 nM. For the same molecule, the TGI [34] was greater than 100000 nM, the GI50 [35] was 1140 nM and the TGI [35] was greater than 100000 nM. The GI50 [36] was 222 nM, the GI50 [37] was 452 nM and the TGI [37] was greater than 100000 nM. It also gave a GI50 [38] of 223 nM, a TGI [38] greater than 82800 nM and a GI50 [39] of 248 nM. The TGI [39] was 17100 nM, the GI50 [40] was 242 nM and the GI50 [41] was 309 nM. For the same molecule, the TGI [41] was 3810 nM, the GI50 [42] was 146 nM and the TGI [42] was 757 nM. For the same molecule, the GI50 [43] was 2790 nM, the TGI [43] was greater than 100000 nM and the GI50 [44] was 1160 nM. For the same molecule, the TGI [44] was greater than 100000 nM, the GI50 [45] was 324 nM and the TGI [45] was 4010 nM. It also gave a GI50 [46] of 541 nM, a TGI [46] greater than 100000 nM and a GI50 [47] of 314 nM. For the same molecule, the TGI [47] was greater than 39500 nM, the GI50 [48] was 557 nM and the TGI [48] was greater than 100000 nM. It also gave a GI50 [49] of 139 nM, a TGI [49] of 87500 nM and a GI50 [50] of 39.8 nM. For the same molecule, the TGI [50] was greater than 35800 nM, the GI50 [51] was 476 nM and the TGI [51] was greater than 100000 nM. It also gave a GI50 [52] of 454 nM, a TGI [52] greater than 100000 nM and a GI50 [53] of 961 nM. The TGI [53] was greater than 100000 nM, the GI50 [54] was 237 nM and the GI50 [55] was 624 nM. The TGI [55] was 9440 nM, the GI50 [56] was 264 nM and the TGI [56] was 1940 nM. For the same molecule, the GI50 [57] was 298 nM and the TGI [57] was 1240 nM.
